Experimental data from the NIST ThermoML archive (doi:10.1016/j.fluid.2007.04.009).

Key:
[1] = xn = mol fraction of the nth substance listed; conditions: 298.15 K; for surface tension liquid-gas: Pendant drop shape; for mass density: 101.3 kPa, Liquid
[2] = refractive index (Na D-line) (dimensionless); conditions: 298.15 K; 101.33 kPa; Liquid; Standard Abbe refractometry
[3] = 298.15 K; for surface tension liquid-gas: Pendant drop shape; for mass density: 101.33 kPa, Liquid

CCOC(C)(C)C [2-ethoxy-2-methylpropane] + CCCO
[1]
Conditions	mass density [kg/m3]	surface tension liquid-gas [mN/m]
x1 = 0.0572	795.04	–
x1 = 0.067	–	23.58
x1 = 0.1043	791.43	–
x1 = 0.171	–	22.81
x1 = 0.1752	786.11	–
x1 = 0.2085	783.67	–
x1 = 0.27	779.29	–
x1 = 0.315	–	22.12
x1 = 0.3317	775.03	–
x1 = 0.3732	772.24	–
x1 = 0.412	–	21.48
x1 = 0.4205	769.2	–
x1 = 0.4756	765.72	–
x1 = 0.5326	762.15	–
x1 = 0.5639	760.27	–
x1 = 0.579	–	20.81
x1 = 0.621	756.93	–
x1 = 0.682	753.59	–
x1 = 0.7188	751.55	–
x1 = 0.7551	749.37	–
x1 = 0.763	–	20.25
x1 = 0.8334	745.06	–
x1 = 0.8737	742.66	–
x1 = 0.9142	740.45	–
x1 = 0.9567	737.98	–

CCCO [propan-1-ol]
Conditions	mass density [kg/m3]	refractive index	surface tension liquid-gas [mN/m]
[2]	–	1.38333	–
[3]	799.49	–	23.89

CCOC(C)(C)C [2-ethoxy-2-methylpropane]
Conditions	mass density [kg/m3]	refractive index	surface tension liquid-gas [mN/m]
[2]	–	1.37319	–
[3]	735.44	–	19.73
